In patent US6733777B2, “Cationic reagents of transfection” (Qiagen GmbH, priority 1996, dated 2004):
Values joined by “and” are separate entries in the source; they are usually repeats but may differ in a detail not shown here. Equal values may be shown once. Read-outs that look alike come from different tables or passages of the source.

How the values were obtained:
Huh7 cells [1] = system: Huh7 cells
Experimental: The resulting liposomes were used to transfect Huh7 cells in vitro with the reporter plasmid pCMVβ (Clontech). Transfection efficiencies, as obtained by OD measurements after cell-lysis and β-Gal activity assay, were compared to efficiencies obtained in parallel with a commercially available liposome-preparation (Lipofectamine, Gibco LTI) and given as percentage of Lipofectamine efficiency. For each transfection, 0.5 μg of pCMVβ (isolated with EndoFree, QIAGEN) was used per well of a 96 well plate. The DNA was diluted to 50 μl with DMEM medium (Gibco LTI) and combined with 1, 2, 3 and 4 μl of the liposome preparations subsequently diluted to 50 μl with DMEM medium. DNA and liposome solutions were mixed and applied to the cells for 6 hours at 37° C., 5% CO2. Afterwards, medium was changed to DMEM containing 10% fetal calf serum. Cells were lysed after 48 h incubation at 37° C., 5% CO2. Twofold determinations each were performed. The values were averaged and the highest efficiency (optimum) within a row was given as percentage value of the highest efficiency (optimum) obtained with Lipofectamine.

HeLaS3 cells [2] = test: Transfection of HeLaS3 cells with pCMVβ, β-Gal activity assay (variation of counter ion); type: cell-based; settings: 10-2-10 cytofectin with the given counter ion, liposome with DOPE, 0.5 μg pCMVβ
Experimental: Liposomes were used to transfect HeLaS3 cells in vitro with the reporter plasmid pCMVβ (Clontech). […] Cells were incubated for 48 hours at 37° C., 5% CO2 and then lysed.
In similar studies in HeLaS3 cells, the same vector was transfected with liposomes comprising bromide counter ions and the cytofectin, 10-2-10 Ethandiyl-1,2-bis(decyl dimethylammonium).

HeLaS3 cells [3] = settings: liposome with DOPE, 0.5 μg pCMVβ
Experimental: (§1) Without sonication, liposomes were prepared at 60° C. by combining DOPE with one of the following:
(§2) The resulting liposomes were used to transfect HeLaS3 and Huh7 cells in vitro with the reporter plasmid pCMVβ (Clontech). Transfection efficiency values, obtained by taking OD measurements after cell-lysis and β-Gal activity assay, were compared to efficiencies obtained in parallel with a commercially available liposome-preparation (Lipofectamine, Gibco LTI) and given as percentage of Lipofectamine efficiency. In each transfection, 0.5 μg of pCMVβ (isolated with EndoFree, QIAGEN) was used per well of a 96 well plate. The DNA was diluted to 50 μl with DMEM medium (Gibco LTI) and combined with 1, 2, 3 and 4 μl of the liposome preparations subsequently diluted to 50 μl with DMEM medium. DNA and liposome solutions were mixed and applied to the cells for 6 hours at 37° C., 5% CO2. Afterwards, medium was changed to DMEM containing 10% fetal calf serum. Cells were lysed after 48 h incubation at 37° C., 5% CO2.
(§3) Twofold determinations each were performed. The values were averaged and the highest efficiency (optimum) within a row was given as percentage value of the highest efficiency (optimum) obtained with Lipofectamine.

Huh7 cells [4] = settings: liposome with DOPE, 0.5 μg pCMVβ
Experimental: as §1, §2, §3

COS7 cells = settings: liposome with DOPE, 1 μg pCMVβ, optimum of 1-4 μl liposome
Experimental: (§4) Liposomes were prepared at 60° C. by combining 10-3-10 (Propandiyl-1,3-bis(decyl dimethylammonium bromide) and DOPE (as described in Example 3), with and without sonication.
(§5) Liposomes were used to transfect HeLaS3 and COS7 cells in vitro with the reporter plasmid pCMVβ (Clontech). Transfection efficiencies, as obtained by optical density (OD) measurements after cell-lysis and β-Gal activity assay, were compared to efficiencies obtained in parallel with a commercially available liposome-preparation (Lipofectamine, Gibco LTI) and given as percentage of Lipofectamine efficiency. For each transfection, 1 μg of pCMVβ (isolated with EndoFree, QIAGEN) was used per well of a 96-well plate. The DNA was diluted to 50 μl with DMEM medium (Gibco LTI) and combined with 1, 2, 3 and 4 μl of the liposome preparations subsequently diluted to 50 μl with DMEM medium. DNA and liposome solutions were mixed and applied to the cells for 6 hours at 37° C., 5% CO2. Afterwards, medium was changed to DMEM containing 10% fetal calf serum. Cells were lysed after 48 h incubation at 37° C., 5% CO2.
as §3

HeLaS3 cells [5] = settings: for Results (%) HeLaS3 (transfection efficiency as percentage of Lipofectamine efficiency): liposome with DOPE, 1 μg pCMVβ, optimum of 1-4 μl liposome
Experimental: as §4, §5, §3

[6] = X(DOPE) 0.50, without sonication
[7] = X(DOPE) 0.60, without sonication
[8] = X(DOPE) 0.70, without sonication
[9] = X(DOPE) 0.80, without sonication

Compound	Results (%) HeLaS3 (transfection efficiency as percentage of Lipofectamine efficiency) (HeLaS3 cells [3]; [6])	Results (%) HeLaS3 (transfection efficiency as percentage of Lipofectamine efficiency) (HeLaS3 cells [3]; [7])	Results (%) HeLaS3 (transfection efficiency as percentage of Lipofectamine efficiency) (HeLaS3 cells [3]; [8])	Results (%) HeLaS3 (transfection efficiency as percentage of Lipofectamine efficiency) (HeLaS3 cells [3]; [9])	Results (%) Huh7 (transfection efficiency as percentage of Lipofectamine efficiency) (Huh7 cells [4]; [6])	Results (%) Huh7 (transfection efficiency as percentage of Lipofectamine efficiency) (Huh7 cells [4]; [7])	Results (%) Huh7 (transfection efficiency as percentage of Lipofectamine efficiency) (Huh7 cells [4]; [8])	Results (%) Huh7 (transfection efficiency as percentage of Lipofectamine efficiency) (Huh7 cells [4]; [9])	other results
Br [10-2-10, Ethanediyl-1,2-bis(decyldimethylammonium bromide)]	216%	286%	165%	178%	142%	127%	111%	115%	Result (%) (transfection efficiency as percentage of Lipofectamine efficiency) (Huh7 cells [1]): 111% and 115%; Result (%) (transfection efficiency as percentage of Lipofectamine efficiency) (Huh7 cells [1]; Huh7, liposome with DOPE, X(DOPE) 0.50, without sonication, 0.5 μg pCMVβ): 142%; Result (%) (transfection efficiency as percentage of Lipofectamine efficiency) (Huh7 cells [1]; Huh7, liposome with DOPE, X(DOPE) 0.60, without sonication, 0.5 μg pCMVβ): 127%; Results (%) (optimal transfection efficiency as percentage of the highest efficiency obtained by Lipofectamine) (HeLaS3 cells [2]; [6]): 216%; Results (%) (optimal transfection efficiency as percentage of the highest efficiency obtained by Lipofectamine) (HeLaS3 cells [2]; [7]): 286%; Results (%) (optimal transfection efficiency as percentage of the highest efficiency obtained by Lipofectamine) (HeLaS3 cells [2]; [8]): 165%; Results (%) (optimal transfection efficiency as percentage of the highest efficiency obtained by Lipofectamine) (HeLaS3 cells [2]; [9]): 178%
Butanediyl-1,4-bis(decyl dimethyl-ammonium bromide) [10-4-10]	200%	257%	200%	123%	76%	62%	54%	34%	–
Propandiyl-1,3-bis(decyl dimethylammonium bromide) [10-3-10]	241%	293%	223%	118%	80%	83%	54%	39%	Results % COS7 (transfection efficiency as percentage of Lipofectamine efficiency) (COS7 cells; X(DOPE) 0.20, sonic. for 300 s): 6%; Results % COS7 (transfection efficiency as percentage of Lipofectamine efficiency) (COS7 cells; X(DOPE) 0.20, w/o sonication): 6%; Results % COS7 (transfection efficiency as percentage of Lipofectamine efficiency) (COS7 cells; X(DOPE) 0.35, sonic. for 300 s): 6%; Results % COS7 (transfection efficiency as percentage of Lipofectamine efficiency) (COS7 cells; X(DOPE) 0.35, w/o sonication): 6%; Results % COS7 (transfection efficiency as percentage of Lipofectamine efficiency) (COS7 cells; X(DOPE) 0.50, sonic. for 300 s): 6%; Results % COS7 (transfection efficiency as percentage of Lipofectamine efficiency) (COS7 cells; X(DOPE) 0.50, w/o sonication): 7%; Results % COS7 (transfection efficiency as percentage of Lipofectamine efficiency) (COS7 cells; X(DOPE) 0.65, sonic. for 300 s): 8%; Results % COS7 (transfection efficiency as percentage of Lipofectamine efficiency) (COS7 cells; X(DOPE) 0.65, w/o sonication): 26%; Results (%) HeLaS3 (transfection efficiency as percentage of Lipofectamine efficiency) (HeLaS3 cells [5]; X(DOPE) 0.20, sonic. for 300 s): 39%; Results (%) HeLaS3 (transfection efficiency as percentage of Lipofectamine efficiency) (HeLaS3 cells [5]; X(DOPE) 0.20, w/o sonication): 39%; Results (%) HeLaS3 (transfection efficiency as percentage of Lipofectamine efficiency) (HeLaS3 cells [5]; X(DOPE) 0.35, sonic. for 300 s): 39%; Results (%) HeLaS3 (transfection efficiency as percentage of Lipofectamine efficiency) (HeLaS3 cells [5]; X(DOPE) 0.35, w/o sonication): 61%; Results (%) HeLaS3 (transfection efficiency as percentage of Lipofectamine efficiency) (HeLaS3 cells [5]; X(DOPE) 0.50, sonic. for 300 s): 47%; Results (%) HeLaS3 (transfection efficiency as percentage of Lipofectamine efficiency) (HeLaS3 cells [5]; X(DOPE) 0.50, w/o sonication): 115%; Results (%) HeLaS3 (transfection efficiency as percentage of Lipofectamine efficiency) (HeLaS3 cells [5]; X(DOPE) 0.65, sonic. for 300 s): 83%; Results (%) HeLaS3 (transfection efficiency as percentage of Lipofectamine efficiency) (HeLaS3 cells [5]; X(DOPE) 0.65, w/o sonication): 275%; cell-type specificity compared with Lipofectamine (HeLaS3 cells [5]; liposomes with DOPE, HeLaS3 versus COS7): more cell-type specific than Lipofectamine
